{"source": "PubChem BioAssay AID732", "about": "(Emory University Molecular Libraries Screening Center, 2007)", "note": "Where “and” joins values, the source holds several entries; their conditions need not be identical. Identical values can stand only once. Calls of active or inactive are those of the source. The rule behind the calls is not given here."}
{"system": "in vivo angiogenesis, blood vessel count", "test": "reduction of blood vessel formation in vivo – HTS, in vivo study (AID 732);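 note: zebrafish embryos dosed at one day post fertilization; 0% = reference inhibitor and 100% = plate mean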", "settings": "hits give low values;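 tested at 30 µM in the well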"}
{"compound": "Cn1cnc2c(NCc3ccccc3)nc(NCCO)nc21", "vessel count % control": "98.8% (inactive)"}
{"compound": "NCCc1ccc(O)cc1", "vessel count % control": "90.2% (inactive)"}
{"compound": "CC(C)NC[C@H](O)COc1cccc2[nH]ccc12", "vessel count % control": "97.6% (inactive) and 70.7% (inactive)"}
{"compound": "c1ccc2cc(CC3=NCCN3)ccc2c1", "vessel count % control": "120% (inactive)"}
{"compound": "O=c1[nH]c2ccccc2n1C1CCN(CCCC(c2ccc(F)cc2)c2ccc(F)cc2)CC1", "vessel count % control": "52.9% (inactive)"}
{"compound": "CC/C(=C(\\c1ccccc1)c1ccc(OCCN(C)C)cc1)c1ccccc1", "vessel count % control": "64.7% (inactive)"}
{"compound": "C[N+](C)(C)CCC(=O)c1cccc2ccccc12", "vessel count % control": "0% (inactive)"}
{"compound": "C[C@](N)(Cc1ccc(O)c(O)c1)C(=O)O", "vessel count % control": "97.4% (inactive)"}
{"compound": "CCn1c(=O)c2[nH]c(-c3ccccc3)nc2n(CC)c1=O", "vessel count % control": "63.2% (inactive)"}
{"compound": "NCCCCN=C(N)N", "vessel count % control": "106% (inactive)"}
{"compound": "c1ccc(-c2ccccn2)nc1", "vessel count % control": "109% (inactive)"}
{"compound": "Oc1[nH]c2ccccc2c1C1=Nc2ccc(Br)cc2/C1=N\\OCCBr", "vessel count % control": "79.9% (inactive)"}
{"compound": "CN(C)CCCN1c2ccccc2Sc2ccc(Cl)cc21", "vessel count % control": "84.3% (inactive)"}
{"compound": "COc1ccc2c(c1)/C(=C/c1cnc[nH]1)C(=O)N2", "vessel count % control": "73.2% (inactive)"}
{"compound": "NC(N)=NC(=O)Cc1c(Cl)cccc1Cl", "vessel count % control": "119% (inactive)"}
{"compound": "COc1cc2c(cc1O)CC[C@@H]1[C@@H]2CC[C@]2(C)[C@@H](O)CC[C@@H]12", "vessel count % control": "83.1% (inactive)"}
{"compound": "Oc1ccc(/C=C/c2cc(O)cc(O)c2)cc1", "vessel count % control": "100% (inactive)"}
{"compound": "CC(N)c1cccc(Cl)c1Cl", "note": "(stereo unspecified)", "vessel count % control": "89.7% (inactive)"}
{"compound": "C#CCn1c(=O)c2c(ncn2C)n(C)c1=O", "vessel count % control": "103% (inactive)"}
{"compound": "CN1Cc2c(N)cccc2C(c2ccccc2)C1", "note": "(stereo unspecified)", "vessel count % control": "112% (inactive)"}
{"compound": "COc1ccc(NC(=O)c2ccc(-c3ccc(-c4noc(C)n4)cc3C)cc2)cc1N1CCN(C)CC1", "vessel count % control": "93% (inactive)"}
{"compound": "C[N+](C)(C)CC#CCN1CCCC1=O", "vessel count % control": "99.6% (inactive)"}
{"compound": "C=C(C)[C@H]1CN[C@H](C(=O)O)[C@H]1CC(=O)O", "vessel count % control": "123% (inactive)"}
{"compound": "CC[C@@H](CO)NC(=O)[C@@H]1C=C2c3cccc4[nH]cc(c34)C[C@H]2N(C)C1", "vessel count % control": "121% (inactive)"}
{"compound": "Cn1c(=O)c2c(nc(/C=C/c3cccc(Cl)c3)n2C)n(C)c1=O", "vessel count % control": "72.9% (inactive)"}
{"compound": "Cc1cc(C)c(NC(=O)C[C@H](CC(=O)O)c2cccc3ccccc23)c(C(=O)N2CCC3(CCCC3)CC2)c1", "vessel count % control": "108% (inactive)"}
{"compound": "CN1CCC2(CCN3CCc4c(oc5ccccc45)C3C2)N(C)C1=O", "note": "(stereo unspecified)", "vessel count % control": "87.3% (inactive)"}
{"compound": "O=c1ccc2c(OCCCCc3ccccc3)c3ccoc3cc2o1", "vessel count % control": "76.3% (inactive)"}
{"compound": "CO/N=C(\\C(=O)N[C@@H]1C(=O)N2C(C(=O)O)=C(COC(C)=O)CS[C@H]12)c1csc(N)n1", "note": "(stereo in doubt)", "vessel count % control": "104% (inactive)"}
{"compound": "N[C@@H](Cc1ccc(F)cc1)C(=O)O", "vessel count % control": "108% (inactive)"}
{"compound": "CC(C)C[C@H]1C(=O)N2CCC[C@H]2[C@]2(O)O[C@](NC(=O)[C@@H]3C=C4c5cccc6[nH]c(Br)c(c56)C[C@H]4N(C)C3)(C(C)C)C(=O)N12", "vessel count % control": "110% (inactive)"}
{"compound": "CNCCC(Oc1ccccc1OC)c1ccccc1", "note": "(stereo unspecified)", "vessel count % control": "113% (inactive)"}
{"compound": "NC(=O)CNCCC(c1ccccc1)c1ccccc1", "vessel count % control": "119% (inactive)"}
{"compound": "O=c1ccn([C@@H]2O[C@H](COP(=O)(O)OP(=O)(O)O)[C@@H](O)[C@H]2O)c(=O)[nH]1", "vessel count % control": "140% (inactive)"}
{"compound": "CCCCOc1cc(CC2CNC(=O)N2)ccc1OC", "note": "(stereo unspecified)", "vessel count % control": "106% (inactive)"}
{"compound": "CCCCCCCCCCCCCCCC(=O)NCCO", "vessel count % control": "96.1% (inactive)"}
{"compound": "O=[N+]([O-])c1cc(O)c(O)c([N+](=O)[O-])c1", "vessel count % control": "89.3% (inactive)"}
{"compound": "O=C(O)CCC/C=C\\C[C@@H]1[C@@H](/C=C/[C@H](O)C2Cc3ccccc3C2)[C@@H](F)C[C@@H]1O", "vessel count % control": "121% (inactive)"}
{"compound": "C[C@H]1OC[C@@H](C[N+](C)(C)C)O1", "vessel count % control": "115% (inactive)"}
{"compound": "N#CC(C#N)=C(N)/C(C#N)=C/c1ccc(O)cc1", "vessel count % control": "93% (inactive)"}
{"compound": "CCCN(CCC)C1Cc2cc(OC)c(OC)cc2C1", "vessel count % control": "72.2% (inactive)"}
{"compound": "NCCCNCCCCNCCCN", "vessel count % control": "115% (inactive)"}
{"compound": "O=C(O)CN(CCN(CC(=O)O)CC(=O)O)CCN(CC(=O)O)CC(=O)O", "vessel count % control": "0% (inactive)"}
{"compound": "O=c1[nH]c(=O)n([C@H]2C[C@H](O)[C@@H](CO)O2)cc1Br", "vessel count % control": "105% (inactive)"}
{"compound": "CC(=O)CCCCn1c(=O)c2c(ncn2C)n(C)c1=O", "vessel count % control": "109% (inactive)"}
{"compound": "CCCn1c(=O)c2[nH]c(C3CCCC3)nc2n(CCCOC(=O)c2ccc(S(=O)(=O)F)cc2)c1=O", "vessel count % control": "117% (inactive)"}
{"compound": "O=C(O)C1CCNCC1", "vessel count % control": "99.7% (inactive)"}
{"compound": "N=c1nc(N2CCCCC2)cc(N)n1O", "vessel count % control": "114% (inactive)"}
{"compound": "CC1CCN=C(N)S1", "note": "(stereo unspecified)", "vessel count % control": "92% (inactive)"}
{"compound": "O=c1cc(-c2ccc(O)cc2)oc2cc(O)cc(O)c12", "vessel count % control": "87.4% (inactive)"}
{"compound": "NCCc1c[nH]c2ccc(O)cc12", "vessel count % control": "84.5% (inactive)"}
